We go through 15 compounds from US9238632B2, “3-cyanoanilinoalkylarylpiperazine derivative and use thereof in preparing drugs” (NHWA Pharma. Corporation, priority 2012, dated 2016).

Where a name gives a salt, the structure may show the parent alone.

The target of test [1] is T1, 5-HT2A receptor (Rattus norvegicus, UniProt P14842).
T1 construct: The supernatant is discarded and the precipitate (membrane receptor) is stocked; from tissue; host or cells: SD rat cerebral cortex membranes
The test can be described thus: In vitro competitive binding test to 5-HT2A receptor ([3H]-Ketanserin, rat cerebral cortex membranes). The following applies: 10 μmol/L compound; hydrochloride salts; rat cerebral cortex membrane; unit (I %); read-out: 5-HT2A affinity [3H]-Ketanserin (inhibition rate of radioligand binding). How it is done:
(§1) Animals: clean grade SD rats, female and male, 250-300 g, purchased from Nanjing QingLongshan animal breeding center.
(§2) Radioligand: [^3H]-8-OH-DPAT, [^3H]-Ketanserin, purchased from PerkinElmer company; 5-HT and Methysergide, purchased from Sigma company.
Preparation of 5-HT2A buffer solution: Tris (6.05 g) is dissolved in ultrapure water (1000 ml). PH is adjusted to 7.4 with HCl. Tris-HCl buffer solution (0.05M) is used.
(§3) Preparation of radioligand: 50 μl mother liquor is diluted to 5 ml with anhydrous ethanol, and stocked for use.
(§4) Preparation of non-labeling ligand: appropriate amounts of 5-HT and Methysergide are dissolved in ultrapure water to give solutions with final concentrations of 2*10^−5M respectively.
(§5) Preparation of solutions of various test drugs: appropriate amount of each drug is first diluted to 1 ml with ultrapure water as stock solution. When needed, 10 μl of the stock solution is diluted to 1 ml to reach a level of 10^−5M.
(§6) Rats are decapitated to get the brains. The target tissues (left and right cerebral cortex) are separated on ice, added with 10-fold volume (V/W) of ice-cold buffer, and homogenized with tissue Homogenizer for several seconds 3 times to form tissue homogenate. The tissue homogenate is centrifuged with low temperature superb centrifuge (12000 r/min) 3 times, with each for 20 minutes. The supernatant is discarded and the precipitate (membrane receptor) is stocked in −80° C. ultralow temperature freezer.
(§7) The membrane receptor is added with certain volume of ice-cold buffer and homogenized to make membrane receptor solutions at certain concentrations.
(§8) Various reaction solutions are added in the following sequences and ratios:
(§9) Total binding tube: 100 μl membrane receptor+100 μl buffer+10 μl radioligand
(§10) Non-specific tube: 100 μl membrane receptor+100 μl non-labeling ligand+10 μl radioligand
(§11) Test compound tube: 100 μl membrane receptor+100 μl drug solution+10 μl radioligand
(§12) Above tubes are put in 37° C. water bath immediately after finishing adding radioligand into each of them and then incubated for 25 min. After 25 min, the tubes are put in ice water to quench the reaction. Each tube is poured into suction filtration device to filter, and the filter membrane is washed with 5-10 ml ice-cold buffer twice. The filter membrane is dried in 85° C. oven, and then put into test tubes, and added with certain amount of scintillation liquid to soak overnight. Radioactivity is determined using liquid scintillation counter.
(§13) Each compound is tested in duplicate, and the tests are carried out independently twice.

Test [2] concerns the target hSERT (Homo sapiens, UniProt P31645). Put plainly: In vitro inhibition of serotonin reuptake ([3H]-5-HT) in cells stably expressing hSERT. Particulars: read-out: Inhibition rates of SERT reuptake [3H]-5-HT.
Procedure: Positive control compound: fluoxetine.
Sample treatment: about 1 mg of compound is weighted and added with relative amount of DMSO to prepare 10^−2M stock solution. Before use, the stock solution is diluted with HBSS buffer to relative concentrations. Each sample is dissolved in DMSO completely. The dilution is clear and without obvious cloudy and formation of precipitate after adding with buffer.
(1) Cells which can stably express hSERT are seeded into 24-well plates respectively.
(2) Experiments are started when the cell confluence reaches 80-90%.
(3) Liquids in the plates are discarded, the plates are washed with PBS twice at room temperature.
(5) Plates are incubated at 37° C. for 10 min after slight oscillation.
(6) Then 20 μl radioisotope is added (cpm: about 20000).
(7) Plates are incubated at 37° C. for 5 min after slight oscillation.
(8) Liquids in the plates are discarded, the plates are washed with ice-cold PBS twice, all the liquids in the plates are removed away.
(9) NaOH (2M, 100 μl) is added into each well to lyse the cells. All the lysates are combined and put on GF/C glass fiber filter paper.
(10) The filter papers are dried and put in 0.5 ml centrifuge tube, 500 μl lipid soluble scintillation liquid are added. Radioactivity is determined by MicroBeta liquid scintillation counter. Each concentration is tested intriplicate, and tests are carried out independently twice.
Test concentration is 10 μmol/L. The positive drug provided is set as control (10 μmol/L) in each experiment. The experimental processes are the same as the above process.
Test [3] deals with T2, 5-HT1A receptor (Rattus norvegicus, UniProt P19327).
T2 construct: The supernatant is discarded and the precipitate (membrane receptor) is stocked; from tissue; host or cells: SD rat cerebral cortex membranes
T2 sequence (P19327 1-422): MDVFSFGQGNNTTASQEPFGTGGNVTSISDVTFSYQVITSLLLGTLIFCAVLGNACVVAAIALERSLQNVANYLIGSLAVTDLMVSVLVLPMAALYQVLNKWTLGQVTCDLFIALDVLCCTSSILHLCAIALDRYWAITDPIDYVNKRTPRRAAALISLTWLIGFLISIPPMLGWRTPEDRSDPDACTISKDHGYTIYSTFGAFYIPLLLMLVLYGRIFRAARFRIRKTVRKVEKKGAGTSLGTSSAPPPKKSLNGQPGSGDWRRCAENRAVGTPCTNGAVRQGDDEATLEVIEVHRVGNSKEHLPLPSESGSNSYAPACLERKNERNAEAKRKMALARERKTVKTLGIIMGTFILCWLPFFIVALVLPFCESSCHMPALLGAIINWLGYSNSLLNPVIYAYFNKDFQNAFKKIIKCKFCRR
Put plainly: In vitro competitive binding test to 5-HT1A receptor ([3H]-8-OH-DPAT, rat cerebral cortex membranes). Particulars: 10 μmol/L compound; hydrochloride salts; rat cerebral cortex membrane; unit (I %); read-out: 5-HT1A affinity [3H]-8-OH-DPAT (inhibition rate of radioligand binding). How it is done:
as §1, §2
Preparation of 5-HT1A buffer solution: Tris-HCl buffer solution (0.05M, 1000 ml) is added with certain amount of ascorbic acid, pargyline and CaCl2, to give final concentrations of 0.1%(ascorbic acid), 10 um (pargyline) and 4 mM (CaCl2) separately.
as §3, §4, §5, §6, §7, §8, §9, §10, §11, §12, §13

Test [4] deals with rat formalin induced pain model. The test can be described thus: Rat formalin induced pain model (leg-raising times). The class given is in vivo, SD rats. The following applies: 100 mg/kg intragastric, formalin 1 h later; Mean ± SD, n=10. From the text:
Rat formalin induced pain model is used to test in vivo analgesic effect of hydrochloride of compound III-10.
Rat formalin induced pain model is established by Dubuisson and Dennis in 1977. It can simulate some characteristics of human pains after damages, and its persistent tension pain is similar to common clinical chronic pains. Its experimental results have excellent repeatability, and it is considered to be universally accepted pain model which is more reliable than short-term mechanical or thermal stimulation models. It has been generally used in investigation and determination of pain mechanism, pain physiology and pharmacology, screening of the analgesic effects of drugs and evaluation of analgesic drugs.
Test compounds are prepared to relevant doses with 0.5% CMC-Na before use.
Formaldehyde solution: batch number HN20041109, HuaDong reagent industrial company. In experiment, it is diluted to 5% formaldehyde solution with 0.9% sodium chloride injection.
90 SD rats of weight (240-350 g), half female and half male, are fed for I week to adapt the environment, with 5 in each cage during feeding, the rats are fed under standard condition during experiments with free access to water and food.
90 SD rats of weight 240-350 g are randomly divided into 9 groups which are negative control group, model group, gabapentin group, high, median and low dosage group of each compound respectively, with 10 rats in each group, half female and half male. Relevant test compounds are given by intragastric administration, and 5% formalin (50 ul) is subcutaneously injected at the left rear foot in 1 h to model, formation of pichu indicates a successful modeling. 0.5% (weight percentage) CMC-Na is given by intragastric administration in negative control group, and normal saline (50 ul) is subcutaneously injected at the bottom of right rear foot in 1 h. After modeling, the leg-raising times in 1-2 minutes and 5-6 minutes are observed. The time period 10-60 minutes are divided into 5 minutes intervals, and the leg-raising times of the first minute of each interval (10-11, 15-16, 20-21, 25-26, 30-31, 35-36, 40-41, 45-46, 50-51, 55-56, 60-61) are observed.
Measuring index is expressed as mean±standard deviation (Mean±SD), comparison is analyzed with One-way ANOVA.

Test [5] deals with mice tail suspension test. Put plainly: Mice tail suspension test (immobility time). The class given is in vivo, KM mice. The following applies: 40 mg/kg intragastric, 1 h post dose, last 4 min of 6 min, n=10, mean ± SD. How it is done:
Control drug: duloxetine hydrochloride, fluoxetine hydrochloride
A few days before the experiment, mice with qualified body weight are selected and divided into groups. The experiments are carried out in 2 days. In D1, mice are put on bar of tail suspension instrument for 6 min, the immobility time of the last 4 min are recorded. […] Blank control group, positive control group and each test compound group are set.
The mean values of immobility time for each group are calculated, the results are expressed as “mean±standard deviation”.

T1 sequence (P14842 whole entry): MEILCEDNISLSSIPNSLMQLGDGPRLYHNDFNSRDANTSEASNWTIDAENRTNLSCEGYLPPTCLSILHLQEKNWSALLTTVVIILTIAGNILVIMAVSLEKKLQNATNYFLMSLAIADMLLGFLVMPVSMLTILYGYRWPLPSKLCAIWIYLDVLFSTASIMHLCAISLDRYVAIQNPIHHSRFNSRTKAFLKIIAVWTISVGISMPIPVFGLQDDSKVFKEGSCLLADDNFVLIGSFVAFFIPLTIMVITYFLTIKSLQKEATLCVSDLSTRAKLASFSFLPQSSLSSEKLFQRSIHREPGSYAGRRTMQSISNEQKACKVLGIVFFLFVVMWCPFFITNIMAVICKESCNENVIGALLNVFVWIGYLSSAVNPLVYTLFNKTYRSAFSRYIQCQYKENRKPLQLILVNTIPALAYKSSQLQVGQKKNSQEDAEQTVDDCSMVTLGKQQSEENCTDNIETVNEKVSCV
Sequence of hSERT (P31645 whole entry): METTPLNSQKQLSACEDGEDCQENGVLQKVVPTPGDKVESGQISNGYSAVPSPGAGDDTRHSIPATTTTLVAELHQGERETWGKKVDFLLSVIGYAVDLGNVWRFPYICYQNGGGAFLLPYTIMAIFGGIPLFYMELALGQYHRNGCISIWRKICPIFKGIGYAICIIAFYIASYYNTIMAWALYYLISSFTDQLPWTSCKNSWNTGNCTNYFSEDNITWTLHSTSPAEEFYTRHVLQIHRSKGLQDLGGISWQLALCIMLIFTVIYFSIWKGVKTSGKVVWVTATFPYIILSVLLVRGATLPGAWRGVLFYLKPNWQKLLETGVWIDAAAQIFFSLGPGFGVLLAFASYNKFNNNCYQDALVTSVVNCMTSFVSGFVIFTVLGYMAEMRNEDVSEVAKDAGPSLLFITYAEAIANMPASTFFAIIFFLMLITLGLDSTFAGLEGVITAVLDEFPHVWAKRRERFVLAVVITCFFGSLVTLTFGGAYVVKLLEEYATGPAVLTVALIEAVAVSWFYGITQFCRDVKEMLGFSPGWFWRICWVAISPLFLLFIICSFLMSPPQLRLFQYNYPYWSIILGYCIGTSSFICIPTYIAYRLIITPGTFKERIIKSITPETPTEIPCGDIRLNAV

In the case of `COc1cncnc1N1CCN(CCN(C)c2cccc(C#N)c2)CC1` [III-7], the values for the inhibition at 10 µM in test [1], in test [2] and in test [3] were 101%, 81.7% and 83.2%, respectively.
For `CCN(CCCN1CCN(c2ccccc2OC)CC1)c1cccc(C#N)c1` [III-14, 3-((3-(4-(2-methoxyphenyl)piperazin-1-yl)propyl)ethylamino)benzonitrile], the inhibition – broadly, the change of the read-out against control, counted positive when it falls – at 10 µM in test [1] was 135%; in test [2] it was 98.2%; in test [3], 112%.
Turning to `NCC1(CC(=O)O)CCCCC1` [Gabapentin, gabapentin, reference compound], in test [4], the “phase I times (leg-raising times)” value amounted to 11.60 ± 6.75 time and the “phase II times (leg-raising times)” value worked out at 74.7 ± 39.45 time.
With `CN(CCN1CCN(c2cccc(Cl)c2)CC1)c1cccc(C#N)c1` [III-3, 3-((2-(4-(3-chlorophenyl)piperazin-1-yl)ethyl)methylamino)benzonitrile], the values for the inhibition at 10 µM in test [1], in test [2] and in test [3] were 107%, 98.3% and 155%, respectively.
As for `CNCC[C@H](Oc1cccc2ccccc12)c1cccs1` [dutoxetine, duloxetine hydrochloride], the Immobility time in test [5] (hydrochloride) is given as 28.2 ± 27.3 S; in test [5] (listed as dutoxetine hydrochloride, hydrochloride), “significantly decreased immobility time”.
As for `CN(CCCN1CCN(c2cccc(Cl)c2Cl)CC1)c1cccc(C#N)c1` [III-13, 3-((3-(4-(2,3-dichlorophenyl)piperazin-1-yl)propyl)methylamino)benzonitrile], the inhibition at 10 µM amounted to 149% in test [1], 86.9% in test [2] and 119% in test [3].
The matching figures for `CN(CCN1CCN(c2cccc(Cl)c2Cl)CC1)c1cccc(C#N)c1` [III-4, 3-((2-(4-(2,3-dichlorophenyl)piperazin-1-yl)ethyl)methylamino)benzonitrile]: 104%, 93.4% and 126%.
The matching figures for `COc1c(Cl)ncnc1N1CCN(CCN(C)c2cccc(C#N)c2)CC1` [III-6, 3-((2-(4-(6-chloro-5-methoxylpyrimidin-1-yl)piperazin-1-yl)ethyl)methylamino)benzonitrile]: 84.5%, 98.3% and 91.6%.
Take `COc1ccccc1N1CCN(CCN(C)c2cccc(C#N)c2)CC1` [III-1, 3-((2-(4-(2-methoxyphenyl)piperazin-1-yl)ethyl)methylamino)benzonitrile]: the inhibition at 10 µM in test [1] is 98.9%; in test [2] it was 97.3%; in test [3], 154%.
Take `CNCCC(Oc1ccc(C(F)(F)F)cc1)c1ccccc1` (stereo not drawn) [fluoxetine]: the Immobility time is 69.9 ± 27.4 S in test [5] and “significantly decreased immobility time” in test [5] (listed as fluoxetine hydrochloride).
Consider `Cc1cccc(N2CCN(CCCN(C)c3cccc(C#N)c3)CC2)c1C` [III-11, 3-((3-(4-(2,3-dimethylphenyl)piperazin-1-yl)propyl)methylamino)benzonitrile], for which the inhibition at 10 µM was determined as 145% in test [1], 96.6% in test [2] and 102% in test [3].
The matching figures for `Cc1cccc(N2CCN(CCN(C)c3cccc(C#N)c3)CC2)c1C` [III-5, 3-((2-(4-(2,3-dimethylphenyl)piperazin-1-yl)ethyl)methylamino)benzonitrile]: 134%, 99.7% and 121%.
`CN(CCN1CCN(c2cccc(C(F)(F)F)c2)CC1)c1cccc(C#N)c1` [III-2, 3-(methyl(2-(4-(3-trifluoromethylphenyl)piperazin-1-yl)ethyl)amino)benzonitrile]: the inhibition at 10 µM in test [1] was determined as 131%; in test [2], 97.8%; in test [3], 119%.
In the case of `COc1cncnc1N1CCN(CCCN(C)c2cccc(C#N)c2)CC1` [III-12], the inhibition at 10 µM in test [1] was determined as 132%; in test [2] it was 94.4%; in test [3], 114%.
Turning to `COc1ccccc1N1CCN(CCCN(C)c2cccc(C#N)c2)CC1` [III-9, 3-((3-(4-(2-methoxyphenyl)piperazin-1-yl)propyl)methylamino)benzonitrile], the inhibition at 10 µM in test [1] was 154%; in test [2] it was 104%; in test [3] it was 125%.
